According to US11793815B2, “Oxindoles and methods of use thereof” (ALIGOS THERAPEUTICS, INC., priority 2020, dated 2023):

Biological target: T1, human thyroid receptor beta ligand-binding domain (LBD) (Homo sapiens, UniProt P10828)
T1 construct: Thyroid receptor beta LBD was added to the plate at a final concentration of 1 nM; purchased Invitrogen
T1 sequence (P10828 217-461 limits assumed): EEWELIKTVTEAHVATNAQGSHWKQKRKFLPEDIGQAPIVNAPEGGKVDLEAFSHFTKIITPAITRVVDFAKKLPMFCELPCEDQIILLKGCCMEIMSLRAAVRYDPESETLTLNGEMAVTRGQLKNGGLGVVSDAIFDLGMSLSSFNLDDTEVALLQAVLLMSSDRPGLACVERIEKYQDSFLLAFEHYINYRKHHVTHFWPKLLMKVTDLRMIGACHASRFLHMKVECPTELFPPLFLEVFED
Assay: THR Biochemical Assay (Assay 1): TR-FRET thyroid receptor beta coactivator assay
Conditions: GST-tagged thyroid receptor beta LBD 1 nM, fluorescein SRC2-2 coactivator peptide 200 nM, 1 hr at rt, TR-FRET ratio 520:495; read-out: Assay 1 (EC50, THR-beta agonist)
From the text: THR Biochemical Assay (Assay 1)
The TR-FRET thyroid receptor beta coactivator assay was used with slight, optimized modifications of the manufacturer's protocol (Invitrogen). The assay uses a terbium-labeled anti-GST antibody, a glutathione-S-transferase (GST) tagged human thyroid receptor, beta or alpha, ligand-binding domain (LBD), and a fluorescein labeled SRC2-2 coactivator peptide. The antibody interacts with the LBD, where the agonist also binds, resulting in increased affinity for the SRC2-2 coactivator peptide causing energy transfer […] the acceptor fluorophore and a FRET emission shift from 495 to 520 nm. The energy transfer was detected as an increase in the fluorescence emission of the fluorescein acceptor, and a decrease in the fluorescence emission of the terbium donor. The assay was performed in a 384-well black plate in a final volume of 20 μL. Serial dilution of various test agonists was performed in DMSO (1% final DMSO concentration) and added to the test plate. Thyroid receptor beta LBD was added to the plate at a final concentration of 1 nM, followed by the mixture of the fluorescein labeled SRC2-2 coactivator peptide, and the terbium-labeled anti-GST antibody at final concentrations of 200 nM and 2 nM respectively. The assay was incubated for 1 hr at rt protected from light. The TR-FRET was then measured on a Victor multilabel reader (Perkin Elmer) using an excitation wavelength of 340 nm with emission filters of 495 nm and 520 nm. The assay was quantified by expressing a ratio (520:495) of the intensities, and the resulting activation curves; EC50 values were generated using a sigmoidal dose response (variable slope) equation in GraphPad™ Prism 8.0.

EC50 | SMILES
< 50 nM | CC1CC12C(=O)Nc1ccc(Oc3c(Cl)cc(-n4nc(N)c(=O)[nH]c4=O)cc3Cl)cc12 (single isomer, unassigned) [Compound 32, 6-amino-2-(3,5-dichloro-4-((2-methyl-2′-oxospiro[cyclopropane-1,3′-indolin]-5′-yl)oxy)phenyl)-1,2,4-triazine-3,5(2H,4H)-dione]
< 50 nM | CC1CC12C(=O)Nc1ccc(Oc3c(Cl)cc(NC(=O)C(=O)O)cc3Cl)cc12 (single isomer, unassigned) [Compound 34, 2-((3,5-dichloro-4-((2-methyl-2′-oxospiro[cyclopropane-1,3′-indolin]-5′-yl)oxy)phenyl)amino)-2-oxoacetic acid]
< 50 nM | CC1CC12C(=O)Nc1ccc(Oc3c(Cl)cc(NC(=O)C(=O)O)cc3Cl)cc12 (single isomer, unassigned) [Compound 35, 2-((3,5-dichloro-4-((2-methyl-2′-oxospiro[cyclopropane-1,3′-indolin]-5′-yl)oxy)phenyl)amino)-2-oxoacetic acid]
50 to 250 nM | Cc1cc(OCC(=O)O)c(C)c(C)c1Cc1ccc2c(n1)C(C)(C)C(=O)N2 [Compound 1, 4-([3,3-dimethyl-2-oxo-1H-pyrrolo[3,2-b]pyridin-5-yl]methyl)-2,3,5-trimethylphenoxyacetic acid]
< 50 nM | Cc1cc(-n2nc(C#N)c(=O)[nH]c2=O)cc(C)c1Oc1ccc2c(c1)C1(CC1)C(=O)N2 [Compound 2, 2-(3,5-dimethyl-4-((2′-oxospiro[cyclopropane-1,3′-indolin]-5′-yl)oxy)phenyl)-3,5-dioxo-2,3,4,5-tetrahydro-1,2,4-triazine-6-carbonitrile]
< 50 nM | Cc1cc(-n2nc(C#N)c(=O)[nH]c2=O)cc(C)c1Oc1ccc2c(c1)C1(CCC1)C(=O)N2 [Compound 3, 2-(3,5-dimethyl-4-((2′-oxospiro[cyclobutane-1,3′-indolin]-5′-yl)oxy)phenyl)-3,5-dioxo-2,3,4,5-tetrahydro-1,2,4-triazine-6-carbonitrile]
< 50 nM | Cc1cc(-n2nc(N)c(=O)[nH]c2=O)cc(C)c1Cc1ccc2c(c1)C1(CCC1)C(=O)N2 [Compound 4, 6-amino-2-(3,5-dimethyl-4-{2′-oxo-1′H-spiro[cyclobutane-1,3′-indol]-5′-ylmethyl}phenyl)-4H-1,2,4-triazine-3,5-dione]
< 50 nM | O=C1Nc2ccc(Oc3c(Cl)cc(-n4ncc(=O)[nH]c4=O)cc3Cl)cc2C12CCC2 [Compound 5, 2-(3,5-dichloro-4-((2′-oxospiro[cyclobutane-1,3′-indolin]-5′-yl)oxy)phenyl)-1,2,4-triazine-3,5(2H,4H)-dione]
< 50 nM | Nc1nn(-c2cc(Cl)c(Oc3ccc4c(c3)C3(CCC3)C(=O)N4)c(Cl)c2)c(=O)[nH]c1=O [Compound 6, 6-amino-2-(3,5-dichloro-4-((2′-oxospiro[cyclobutane-1,3′-indolin]-5′-yl)oxy)phenyl)-1,2,4-triazine-3,5(2H,4H)-dione]
> 25000 nM | Cc1cc(-n2nc(C#N)c(=O)[nH]c2=O)cc(C)c1Cc1ccc2c(c1)C1(CC(F)(F)C1)C(=O)N2 [Compound 7, 2-(4-((3,3-difluoro-2′-oxospiro[cyclobutane-1,3′-indolin]-5′-yl)methyl)-3,5-dimethylphenyl)-3,5-dioxo-2,3,4,5-tetrahydro-1,2,4-triazine-6-carbonitrile]
> 25000 nM | Cc1cc(-n2nc(N)c(=O)[nH]c2=O)cc(C)c1Cc1ccc2c(c1)C1(CC(F)(F)C1)C(=O)N2 [Compound 8, 6-amino-2-(4-{3,3-difluoro-2′-oxo-1′H-spiro[cyclobutane-1,3′-indol]-5′-ylmethyl}-3,5-dimethylphenyl)-4H-1,2,4-triazine-3,5-dione]
< 50 nM | N#Cc1nn(-c2cc(Cl)c(Oc3ccc4c(c3)C3(CC(F)(F)C3)C(=O)N4)c(Cl)c2)c(=O)[nH]c1=O [Compound 9, 2-(3,5-dichloro-4-((3,3-difluoro-2′-oxospiro[cyclobutane-1,3′-indolin]-5′-yl)oxy)phenyl)-3,5-dioxo-2,3,4,5-tetrahydro-1,2,4-triazine-6-carbonitrile]
